According to patent publication US8343963B2, “Sulfamoyl-phenyl-ureido compounds and their use as medicament” (4SC AG, priority 2009, dated 2013):

Tests used:
[1] = In vitro clearance using human liver microsomes; assay type: in vitro ADME; conditions: human liver microsomes 0.5 mg/ml, 1 μM compound, 37° C., 0-30 min
Method: These experiments were performed at Nikem Research (Via Zambeletti 25; Baranzate, Milan, Italy). Test compounds in duplicate at the final concentration of 1 μM were dissolved in DMSO and pre-incubated for 10 min at 37° C. in phosphate buffer pH 7.4, 3 mM MgCl2, with human liver microsomes at the final concentration of 0.5 mg/ml. After the pre-incubation period, reaction was started by adding the cofactor mixture (NADP, Glc6P, G6P-DH); samples were taken at time 0, 5, 10, 15, 20 and 30 min and added to acetonitrile to quench the metabolic reaction, centrifuged and supernatant analysed and quantified by HPLC/MS. A control sample without cofactors was always added in order to check the chemical stability of test compounds. 7-ethoxycoumarin was added as reference standard. A fixed concentration of verapamil was added in every sample as internal standard for HPLC/MS. The concentration of the remaining compound at different times was determined by HPLC/MS. The rate constant, k (min^−1) derived for the exponential decay equation (peak area vs time) was used to calculate the rate of intrinsic clearance (Cli) of the compounds using the following equations: Cli (μl/min/mg compound)=k×V; where: V (μl/mg compound)=incubation volume/mg compound added. In table 3 the clearance (in vitro metabolic stability) classification was as follows: Cli<10=compound stable; Cli between 10 and 60=low metabolism; Cli between 60 and 600=medium metabolism Cli>600=high metabolism.

[2] = tested on: multiresistant Dd2 strain of Plasmodium falciparum; experiment: Antiplasmodial activity against Dd2 strain of Plasmodium falciparum ([8-3H]hypoxanthine incorporation); assay type: cell-based; conditions: 66 h, P. falciparum Dd2, 48 h + 18 h with [8-3H]hypoxanthine, 50% parasite growth inhibition, read-out: Antiplasmodia activity (IC50 class)
Method: For the determination of the antiplasmodial activity of the compounds described above, the multiresistant Dd2 strain of Plasmodium falciparum was used. The incorporation of [8-^3H]hypoxanthine into the parasitic nucleic acids was measured. The plasmodia were incubated at 0.3% parasitaemia and an erythrocyte haematocrit of 2.5% in the presence of different concentrations of the compounds in a final volume of 200 μl. The medium employed was RPMI 1640 which contained 10% of heat-treated human serum and 3 mg/l of gentamycin. In the incubations, the concentrations of the compounds varied from 0.001 to 100 μM. After 48 h, each batch was treated with 50 μl of [8-^3H]hypoxanthine (1 mCi/ml) and incubated for a further 18 h. The cells were filtered off, washed and suspended in 20 μl of scintillation fluid. The radioactive hypoxanthine absorbed by the parasites was then quantified using a scintillation counter. The results were presented graphically and the IC50 value was determined using a fitting function. The value IC50, the ‘inhibition constant’, indicates the value in μMol/l at which 50% parasite growth inhibition occurs (R. E. Desjardins, et al., Antimicrobiol. Agent Chemother. 16, pp. 710-718, 1979; J. D. Chulay, et al., Exp. Parasitol. 55, pp. 138-146, 1983).

Row | Compound | In vitro metabolism as determined from Cli [1] | IC50 [2] [nM]
1 | CCCCN1CCN(C(=N)c2cccc(NC(=O)Nc3ccc(S(=O)(=O)NCc4ccc(S(N)(=O)=O)s4)cc3)c2)CC1 [Compound 70, 5-((4-(3-(3-((4-butylpiperazin-1-yl)(imino)methyl)phenyl)ureido)phenylsulfonamido)methyl)thiophene-2-sulfonamide] | medium (Cli between 60 and 600=medium metabolism) | 20 to 200
2 | CCCCN1CCN(C(=N)c2cccc(NC(=O)Nc3ccc(S(N)(=O)=O)cc3)c2)CC1 [Compound 1, 4-(3-(3-((4-butylpiperazin-1-yl)(imino)methyl)phenyl)ureido)benzenesulfonamide] | low (Cli between 10 and 60=low metabolism) | ≥ 1000
3 | COCCN1CCN(C(=N)c2cccc(NC(=O)Nc3ccc(S(=O)(=O)NCc4ccc(S(N)(=O)=O)cc4)cc3)c2)CC1 [Compound 69, 4-(3-(3-(imino(4-(2-methoxyethyl)piperazin-1-yl)methyl)phenyl)ureido)-N-(4-sulfamoylbenzyl)benzene sulfonamide] | medium (Cli between 60 and 600=medium metabolism) | 20 to 200
4 | CCCCN1CCN(C(=N)c2cccc(NC(=O)Nc3ccc(S(=O)(=O)NCc4ccc(S(N)(=O)=O)cc4)cc3)c2)CC1=O [Compound 63, 4-(3-(3-((4-butyl-3-oxopiperazin-1-yl)(imino)methyl)phenyl)ureido)-N-(4-sulfamoylbenzyl)benzenesulfonamide] | medium (Cli between 60 and 600=medium metabolism) | < 20
5 | CCN1CCN(C(=N)c2cccc(NC(=O)Nc3ccc(S(=O)(=O)NCc4ccc(S(N)(=O)=O)cc4)cc3)c2)CC1 [Compound 37, 4-(3-(3-((4-ethylpiperazin-1-yl)(imino)methyl)phenyl)ureido)-N-(4-sulfamoylbenzyl)benzenesulfonamide] | medium (Cli between 60 and 600=medium metabolism) | 20 to 200
6 | CCCCN1CCN(C(=N)c2cccc(NC(=O)Nc3ccc(S(=O)(=O)Nc4ccc(S(N)(=O)=O)cc4)cc3)c2)CC1 [Compound 23, 4-(3-(3-((4-butylpiperazin-1-yl)(imino)methyl)phenyl)ureido)-N-(4-sulfamoylphenyl)benzenesulfonamide] | low (Cli between 10 and 60=low metabolism) | 210 to 990
7 | CC(C)N1CCN(C(=N)c2cccc(NC(=O)Nc3ccc(S(=O)(=O)NCc4ccc(S(N)(=O)=O)cc4)cc3)c2)CC1 [Compound 54, 4-(3-(3-(imino(4-isopropylpiperazin-1-yl)methyl)phenyl)ureido)-N-(4-sulfamoylbenzyl)benzenesulfonamide] | medium (Cli between 60 and 600=medium metabolism) | 20 to 200
8 | N=C(c1cccc(NC(=O)Nc2ccc(S(=O)(=O)NCc3ccc(S(N)(=O)=O)cc3)cc2)c1)N1CCN(CC2CC2)CC1 [Compound 66, 4-(3-(3-((4-(cyclopropylmethyl)piperazin-1-yl)(imino)methyl)phenyl)ureido)-N-(4-sulfamoylbenzyl)benzene sulfonamide] | medium (Cli between 60 and 600=medium metabolism) | < 20
9 | CCCCN1CCN(C(=N)c2cccc(NC(=O)Nc3ccc(S(=O)(=O)N4Cc5ccc(S(N)(=O)=O)cc5C4)cc3)c2)CC1 [Compound 41, 2-(4-(3-(3-((4-butylpiperazin-1-yl)(imino)methyl)phenyl)ureido)phenylsulfonyl)isoindoline-5-sulfonamide] | medium (Cli between 60 and 600=medium metabolism) | 20 to 200
10 | CN1CCN(C(=N)c2cccc(NC(=O)Nc3ccc(S(=O)(=O)NCc4ccc(S(N)(=O)=O)cc4)cc3)c2)CC1 [Compound 53, 4-(3-(3-(imino(4-methylpiperazin-1-yl)methyl)phenyl)ureido)-N-(4-sulfamoylbenzyl)benzenesulfonamide] | low (Cli between 10 and 60=low metabolism) | 210 to 990
